IC50 data for 20 molecules are collected here from patent US6004955A, “Cyclic carbamates and isoxazolidines as IIb/IIIa antagonists” (DuPont Pharmaceuticals Company, priority 1998, dated 1999).

pIC50: −log10 of the molar value. Where only a bound is given, the exact number is not on record here.

The subject of assay [1] is platelet aggregation (using platelet rich plasma (PRP)). In words: Platelet Aggregation Assay (without esterase). The class given is cell-based. Particulars: human platelet rich plasma. As to the method: (§1) Platelet Aggregation Assay: Venous blood was obtained from the arm of a healthy human donor who was drug-free and aspirin-free for at least two weeks prior to blood collection. Blood was collected into 10 mL citrated Vacutainer tubes. The blood was centrifuged for 15 minutes at 150×g at room temperature, and platelet-rich plasma (PRP) was removed. The remaining blood was centrifuged for 15 minutes at 1500×g at room temperature, and platelet-poor plasma (PPP) was removed. Samples were assayed on a aggregometer (PAP-4 Platelet Aggregation Profiler), using PPP as the blank (100% transmittance). 200 μL of PRP was added to each micro test tube, and transmittance was set to 0%. 20 μL of various agonists (ADP, collagen, arachidonate, epinephrine, thrombin) were added to each tube, and the aggregation profiles were plotted (% transmittance versus time). The results are expressed as % inhibition of agonist-inducedplatelet aggregation. For the IC50 evaluation, the test compounds were added at various concentrations prior to the activation of the platelets.
(§2) Table A below sets forth the antiplatelet activity of representative compounds of the present invention. The indicated compounds were tested for their ability to inhibit platelet aggregation (using platelet rich plasma (PRP)). The IC50 value (the concentration of antagonist which inhibits platelet aggregation by 50% relative to a control lacking the antagonist) is shown. In Table 5 the IC50 values are expressed as: +++=IC50 of <10 μM (μM=micromolar).

The test system is the same in assay [2]. In words: Platelet Aggregation Assay (with esterase; ester prodrugs preincubated with porcine liver esterase). The assay is classed as cell-based. The settings on record: human platelet rich plasma; preincubated with 100 IU/mL Porcine liver esterase 2 hours at 37° C.; 100 μM Adenosine Diphosphate. The procedure:
as §1
Ester prodrugs were preincubated (10^-3 M F.C.) with 100 IU/mL Porcine liver esterase (Sigma Chemical Co., St. Louis, Mo., #E-3128) for 2 hours at 37° C. Aliquots are then diluted in 0.1 M Tris, pH 7.4, to the desired concentrations. Aliquots of 20 μl of the esterase pretreated prodrugs are added to 200 μl of human platelet rich plasma. Samples were placed in platelet profiler (aggregometer) for 8 minutes at 37° C., followed by the addition of 100 μM Adenosine Diphosphate, (Sigma Chemical Co., St. Louis, Mo., #A-6521), to induce platelet aggregation. Platelet aggregation was allowed to proceed for 5 minutes. Percent inhibition is calculated using percent aggregation in the presence of the test compound divided by percent aggregation of control, times 100. This value is subtracted from 100, yielding percent inhibition. Calculation of IC50 is performed on a Texas Instruments TI59 with an IC50 program.
as §2

Regarding `Cc1cccc(S(=O)(=O)N[C@@H](CNC(=O)CC2CC(c3ccc(C(=N)N)cc3)N(C)C(=O)O2)C(=O)O)c1` (stereo partly drawn) [Example 301, Cis-3-[[[4-[4-(aminoiminomethyl)phenyl]tetrahydro-3-methyl-2-oxo-2H-1,3-oxazin-6-yl]acetyl]amino]-N-[(3-methylphenyl)sulfonyl]-L-alanine monohydrogenchloride], the pIC50 in assay [1] was > 5.00.

Consider `Cc1cccc(S(=O)(=O)N[C@@H](CNC(=O)CC2CC(c3ccc(C(=N)N)cc3)N(Cc3ccccc3)C(=O)O2)C(=O)O)c1` (stereo partly drawn) [Example 322, Cis-3-[[[4-[4-(aminoiminomethyl)phenyl]tetrahydro-3-benzyl-2-oxo-2H-1,3-oxazin-6-yl]acetyl]amino]-N-[(3-methylphenyl)sulfonyl]-L-alanine monohydrogenchloride], for which, in assay [1], the pIC50 is > 5.00.

Regarding `COC(=O)[C@H](CNC(=O)CC1CC(c2ccc(C(=N)N)cc2)N(C)C(=O)O1)NS(=O)(=O)c1c(C)noc1C` (stereo partly drawn) [Example 335, Cis-3-[[[4-[4-(aminoiminomethyl)phenyl]tetrahydro-3-methyl-2-oxo-2H-1,3-oxazin-6-yl]acetyl]amino]-N-[(3,5dimethylisoxazol-4-yl)sulfonyl]-L-alanine methyl ester monotrifluoroacetic acid], in assay [2], the negative logarithm of the IC50 (pIC50) was > 5.00.

As for `COC(=O)[C@H](CNC(=O)CC1CC(c2ccc(C(=N)N)cc2)N(c2ccccc2)O1)NS(=O)(=O)c1cccc(C)c1` (stereo partly drawn) [Example 70, Cis-3-[2-[2-phenyl-3-[4-(aminoiminomethyl)phenyl]-isoxazolidin-5-yl]acetyl]amino-N-(3-methylphenylsulfonyl)-L-alanine methyl ester monotrifluoroacetic acid], the pIC50 in assay [2] was > 5.00.

`Cc1cccc(S(=O)(=O)N[C@@H](CNC(=O)CC2CC(c3ccc(C(=N)N)cc3)N(c3ccccc3)O2)C(=O)O)c1` (stereo partly drawn) [Example 71, Cis-3-[2-[2-phenyl-[4-(aminoiminomethyl)phenyl]-isoxazolidin-5-yl]actetyl]amino-N-(3-methylphenylsulfonyl)-L-alanine monohydrogenchloride]: the pIC50 in assay [1] was > 5.00.

Turning to `Cc1cccc(S(=O)(=O)N[C@@H](CNC(=O)CC2CC(c3ccc(C(=N)N)cc3)N(Cc3ccccc3)O2)C(=O)O)c1` (stereo partly drawn) [Example 17, Cis-3-[2-[2-benzyl-3-[4-(aminoiminomethyl)phenyl]-isoxazolidin-5-yl]acetyl]amino-N-(3-methylphenylsulfonyl)-L-alanine monohydrogenchloride], the pIC50 in assay [1] was > 5.00.

With `COC(=O)[C@H](CNC(=O)CC1CC(c2ccc(C(=N)N)cc2)N(C)C(=O)O1)NS(=O)(=O)c1cccc(C)c1` (stereo partly drawn) [Example 300, Cis-3-[[[4-[4-(aminoiminomethyl)phenyl]tetrahydro-3-methyl-2-oxo-2H-1,3-oxazin-6-yl]acetyl]amino]-N-[(3-methylphenyl)sulfonyl]-L-alanine methyl ester monotrifluoroacetic acid], the pIC50 in assay [2] was > 5.00.

Turning to `Cc1cccc(S(=O)(=O)N[C@@H](CNC(=O)CC2CC(c3ccc(C(=N)N)cc3)N(C(C)C)O2)C(=O)O)c1` (stereo partly drawn) [Example 29, Cis-3-[2-[2-isopropyl-3-[4-(aminoiminomethyl)phenyl]-isoxazolidin-5-yl]acetyl]amino-N-(3-methylphenylsulfonyl)-L-alanine monohydrogenchloride], the pIC50 in assay [1] is > 5.00.

Regarding `COC(=O)[C@H](CNC(=O)CC1CC(c2ccc(C(=N)N)cc2)N(C)O1)NS(=O)(=O)c1ccccc1C` (stereo partly drawn) [Example 32, Cis-3-[2-[2-methyl-3-[4-(aminoiminomethyl)phenyl]-isoxazolidin-5-yl]acetyl]amino-N-(2-methylphenylsulfonyl)-L-alanine methyl ester monotrifluoroacetic acid], the pIC50 in assay [2] was > 5.00.

As for `CCCCOC(=O)N[C@@H](CNC(=O)CC1CC(c2ccc(C(=N)N)cc2)N(C)O1)C(=O)O` (stereo partly drawn) [Example 69, Cis-3-[2-[2-methyl-3-[4-(aminoiminomethyl)phenyl]-isoxazolidin-5-yl]acetyl]amino-N-n-butyloxycarbonyl-L-alanine monohydrogenchloride], the pIC50 in assay [1] was > 5.00.

Regarding `COC(=O)[C@H](CNC(=O)CC1CC(c2ccc(C(=N)N)cc2)N(C(C)C)O1)NS(=O)(=O)c1cccc(C)c1` (stereo partly drawn) [Example 28, Cis-3-[2-[2-isopropyl-3-[4-(aminoiminomethyl)phenyl]-isoxazolidin-5-yl]acetyl]amino-N-(3-methylphenylsulfonyl)-L-alanine methyl ester monotrifluoroacetic acid], the pIC50 in assay [2] was > 5.00.

`Cc1noc(C)c1S(=O)(=O)N[C@@H](CNC(=O)CC1CC(c2ccc(C(=N)N)cc2)N(C)C(=O)O1)C(=O)O` (stereo partly drawn) [Example 336, Cis-3-[[[4-[4-(aminoiminomethyl)phenyl]tetrahydro-3-methyl-2-oxo-2H-1,3-oxazin-6-yl]acetyl]amino]-N-[(3,5-dimethylisoxazol-4-yl)sulfonyl]-L-alanine monohydrogenchloride]: in assay [1], the pIC50 was > 5.00.

`COC(=O)[C@H](CNC(=O)C[C@@H]1C[C@H](c2ccc(C(=N)N)cc2)N(C)O1)NS(=O)(=O)c1c(C)noc1C` (relative stereo) [Example 37, Cis-3-[2-[2-methyl-3-[4-(aminoiminomethyl)phenyl]-isoxazolidin-5-yl]acetyl]amino-N-(3,5-dimethyloxazol-4-ylsulfonyl)-L-alanine methyl ester monotrifluoroacetic]: in assay [2], the pIC50 was > 5.00.

Take `COC(=O)[C@H](CNC(=O)CC1CC(c2ccc(C(=N)N)cc2)N(C)O1)NS(=O)(=O)c1cccc(C)c1` (stereo partly drawn) [Example 3, Trans-3-[2-[2-methyl-3-[4-(aminoiminomethyl)phenyl]-isoxazolidin-5-yl]acetyl]amino-N-(3-methylphenylsulfonyl)-L-alanine methyl ester monotrifluoroacetic acid]: the pIC50 in assay [2] was > 5.00.

Regarding `COC(=O)[C@H](CNC(=O)CC1CC(c2ccc(C(=N)N)cc2)N(Cc2ccccc2)C(=O)O1)NS(=O)(=O)c1cccc(C)c1` (stereo partly drawn) [Example 321, Cis-3-[[[4-[4-(aminoiminomethyl)phenyl]tetrahydro-3-benzyl-2-oxo-2H-1,3-oxazin-6-yl]acetyl]amino]-N-[(3-methylphenyl)sulfonyl]-L-alanine methyl ester monotrifluoroacetic acid], in assay [2], the pIC50 was > 5.00.

`COC(=O)[C@H](CNC(=O)CC1CC(c2ccc(C(=N)N)cc2)N(C)C(=O)O1)NS(=O)(=O)c1ccccc1C` (stereo partly drawn) [Example 327, Cis-3-[[[4-[4-(aminoiminomethyl)phenyl]tetrahydro-3-methyl-2-oxo-2H-1,3-oxazin-6-yl]acetyl]amino]-N-[(2-methylphenyl)sulfonyl]-L-alanine methyl ester monotrifluoroacetic acid]: the pIC50 in assay [2] was > 5.00.

Take `COC(=O)[C@H](CNC(=O)C[C@@H]1CC(c2ccc(C(=N)N)cc2)N(Cc2ccccc2)O1)NS(=O)(=O)c1cccc(C)c1` (relative stereo) [Example 16, Cis-3-[2-[2-benzyl-3-[4-(aminoiminomethyl)phenyl]-isoxazolidin-5-yl]acetyl]-N-(3-methylphenylsulfonyl)-L-alanine methyl ester monotrifluoroacetic acid]: the pIC50 in assay [2] is > 5.00.

`CCCCOC(=O)N[C@@H](CNC(=O)CC1CC(c2ccc(C(=N)N)cc2)N(C)C(=O)O1)C(=O)OC` (stereo partly drawn) [Example 355, Cis-3-[[[4-[4-(aminoiminomethyl)phenyl]tetrahydro-3-methyl-2-oxo-2H-1,3-oxazin-6-yl]acetyl]amino]-N-(n-butyloxycarbonyl)-L-alanine methyl ester monotrifluoroacetic acid]: the pIC50 in assay [2] was > 5.00.

Turning to `CCCCOC(=O)N[C@@H](CNC(=O)CC1CC(c2ccc(C(=N)N)cc2)N(C)O1)C(=O)OC` (stereo partly drawn) [Example 68, Cis-3-[2-[2-methyl-3-[4-(aminoiminomethyl)phenyl]-isoxazolidin-5-yl]acetyl]amino-N-n-butyloxycarbonyl-L-alanine methyl ester monotrifluoroacetic acid], in assay [2], the negative logarithm of the IC50 (pIC50) was > 5.00.

Consider `COC(=O)[C@H](CNC(=O)CC1CC(c2ccc(C(=N)N)cc2)N(C)O1)NS(=O)(=O)c1cccc(C)c1` (stereo partly drawn) [Example 1, Cis-3-[2-[2-methyl-3-[4-(aminoiminomethyl)phenyl]-isoxazolidin-5-yl]-acetyl]amino-N-(3-methylphenylsulfonyl)-L-alanine Methyl Ester Monotrifluoroacetic Acid], for which the pIC50 in assay [2] was > 5.00.

The pIC50 is the IC50 on a negative log10 scale, so that one unit is a factor of ten.
